# Literature values in patent publication US10501455B2, “Inhibitors of leukotriene A4 hydrolase” (Celtaxsys, Inc., priority 2013, dated 2019).
# Columns and labels:
# colitis = conditions: eight weeks of treatment, cotton top tamarins; cited from earlier work
# LTA4-h [1] = target: T1, LTA4-h (Rattus norvegicus, UniProt P30349); conditions: oral administration, rat peritoneum in vivo; cited from earlier work
# T1 construct: host or cells: rat peritoneum in vivo
# T1 sequence (P30349 1-611): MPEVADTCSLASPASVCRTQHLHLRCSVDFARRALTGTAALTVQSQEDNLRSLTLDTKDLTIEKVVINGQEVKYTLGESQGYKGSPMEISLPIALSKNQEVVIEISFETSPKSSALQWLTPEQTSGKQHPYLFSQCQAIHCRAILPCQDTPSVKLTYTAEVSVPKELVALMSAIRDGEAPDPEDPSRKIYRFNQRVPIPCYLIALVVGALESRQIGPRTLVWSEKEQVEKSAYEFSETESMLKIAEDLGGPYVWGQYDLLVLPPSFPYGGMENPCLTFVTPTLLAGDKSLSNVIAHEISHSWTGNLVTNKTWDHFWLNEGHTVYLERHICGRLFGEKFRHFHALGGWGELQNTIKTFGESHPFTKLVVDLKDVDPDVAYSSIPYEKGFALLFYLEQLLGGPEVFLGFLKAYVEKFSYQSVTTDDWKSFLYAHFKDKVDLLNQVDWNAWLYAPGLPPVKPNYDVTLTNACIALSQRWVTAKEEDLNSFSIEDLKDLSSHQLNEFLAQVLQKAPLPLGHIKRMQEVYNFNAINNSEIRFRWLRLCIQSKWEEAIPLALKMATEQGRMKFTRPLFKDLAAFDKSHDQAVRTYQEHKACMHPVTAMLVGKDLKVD
# LTA4-h [2] = target: T2, LTA4-h (Mus musculus, UniProt P24527); conditions: oral administration, mouse blood ex vivo; cited from earlier work
# T2 construct: host or cells: mouse blood ex vivo
# T2 sequence (P24527 1-611): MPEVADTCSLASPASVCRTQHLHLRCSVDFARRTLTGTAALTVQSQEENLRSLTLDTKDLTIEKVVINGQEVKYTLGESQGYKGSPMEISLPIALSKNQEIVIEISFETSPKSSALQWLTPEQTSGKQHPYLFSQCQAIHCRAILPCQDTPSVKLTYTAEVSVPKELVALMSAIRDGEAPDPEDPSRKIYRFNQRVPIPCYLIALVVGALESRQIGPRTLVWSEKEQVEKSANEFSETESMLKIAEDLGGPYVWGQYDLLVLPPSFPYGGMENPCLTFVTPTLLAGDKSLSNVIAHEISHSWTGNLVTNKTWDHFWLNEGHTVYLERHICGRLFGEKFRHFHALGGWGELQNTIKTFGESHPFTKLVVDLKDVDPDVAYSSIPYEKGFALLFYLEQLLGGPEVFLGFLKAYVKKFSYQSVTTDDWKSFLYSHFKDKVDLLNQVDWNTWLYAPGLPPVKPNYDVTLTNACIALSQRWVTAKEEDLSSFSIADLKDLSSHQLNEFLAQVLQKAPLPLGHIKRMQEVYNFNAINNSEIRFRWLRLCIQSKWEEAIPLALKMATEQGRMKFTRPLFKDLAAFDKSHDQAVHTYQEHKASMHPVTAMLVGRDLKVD
structure (smiles),measurement,setting,value
CN(CCCOc1ccc(Cc2ccccc2)cc1)CCC(=O)O.Cl [SC57461],colitis symptoms,colitis,significantly improved colitis symptoms
same,inhibition of ionophore-induced LTB4 production,LTA4-h [1],caused inhibition
same,inhibition of ionophore-induced LTB4 production,LTA4-h [2],caused inhibition
